In PMC6743422, “Preclinical disposition of MGS0274 besylate, a prodrug of a potent group II metabotropic glutamate receptor agonist MGS0008 for the treatment of schizophrenia” (Pharmacology Research & Perspectives, 2019):
“And” between values parts separate entries of the source, which are not always exact repeats. Identical values can stand only once. “Also recorded” adds a separate entry of the source.

Columns and labels:
[1] = Pharmacokinetics after oral MGS0274 besylate in monkeys; format: in vivo, cynomolgus monkey; conditions: fed male monkeys, MGS0274 besylate oral 2.89 mg/kg
Experimental: (§1) The pharmacokinetic profiles of MGS0008 and MGS0274 were investigated in fasted male Wistar rats (n = 3) and fed male cynomolgus monkeys (n = 4). Monkeys had been given 60 g of a primate diet (PS‐A; Oriental Yeast, Tokyo, Japan) one hour before administration. For intravenous administration, MGS0008 was dissolved in saline (pH7.4) and administered to rats (3 mg/kg) and monkeys (1 mg/kg). Blood samples were collected from the tail vein (rats) or the forelimb cephalic vein (monkeys) into tubes containing EDTA‐2K at 5, 15, and 30 minutes and at 1, 2, 4, 8, and 24 hours postdose for both species, and an additional sample was collected at 12 hours postdose for monkeys. Urine samples were collected until 48 hours at 24‐hour intervals (rats) or at 0‐ to 8‐hour, 8‐ to 24‐hour, and 24‐ to 48‐hour intervals (monkeys). The plasma or urine samples was mixed with acetonitrile/methanol (9:1, v/v) containing [^13C2 ^15N]MGS0008 and centrifuged. Aliquots of the supernatant were subjected to bioanalysis using LC‐MS/MS (see Table S1‐E). For oral administration, MGS0008 was dissolved in distilled water (rats) or 0.5% w/v methylcellulose 400 (monkeys) and administered to rats (3 mg/kg) and monkeys (1 mg/kg). MGS0274 besylate was suspended in 0.5% w/v methylcellulose 400 containing 0.1% v/v Tween 80 and administered to monkeys at a dose of 2.89 mg/kg (1‐mg equivalent of MGS0008/kg). Blood samples were collected from the tail vein (rats) or the forelimb cephalic vein (monkeys) into tubes containing EDTA‐2K at 30 minutes, 1, 1.5, 2, 4, 6, 8, and 24 hours postdose for rats, and 30 minutes, 1, 2, 4, 8, 12, and 24 hours postdose for monkeys. The plasma samples were mixed with acetonitrile/methanol (9:1, v/v) containing internal standards ([^13C2 ^15N]MGS0008 and MGS0039) and centrifuged. Aliquots of the supernatant were subjected to bioanalysis using LC‐MS/MS (see Tables S1‐E and F). In the study examining the tissue distribution of MGS0008 in rats (3 mg/kg), blood samples were collected from the posterior vena cava into tubes containing EDTA‐2K under isoflurane anesthesia at 1.5, 4, 6, or 24 hours postdose. Then, the animals were euthanized by exsanguination from the abdominal aorta; cerebrospinal fluid (CSF) samples were drawn from the spinal cord space in each animal. The plasma or CSF was mixed with acetonitrile/methanol (9:1, v/v) containing [^13C2 ^15N]MGS0008 and centrifuged. Aliquots of the supernatant were subjected to bioanalysis using LC‐MS/MS (see Table S1‐E). The plasma concentration‐time profiles of MGS0008 and MGS0274 were analyzed using a non‐compartmental analysis method with pharmacokinetic analysis software Phoenix® WinNonlin® 6.2 or later (Certara, Princeton, NJ).

[2] = test system: rat cryopreserved hepatocytes; experiment: In vitro metabolite profiling in rat cryopreserved hepatocytes; format: in vitro ADME; conditions: rat hepatocytes
Experimental: Rat, monkey, or human cryopreserved hepatocytes in Leivovitz L‐15 medium at 0.5 million cells/mL were incubated at 37°C for 1 hour with [^14C]MGS0274 besylate at 10 μmol/L. The reaction was terminated by adding 10% w/v trichloroacetic acid solution, and the resultant mixture was centrifuged. Aliquots of the supernatant were subjected to bioanalysis using high‐performance liquid chromatography equipped with radiochemical flow detection (RI‐HPLC) (see Table S1‐B). Aliquots of the supernatant from unlabeled incubation samples and authentic standards were also injected into a liquid chromatography‐mass spectrometry (LC‐MS) system under the same chromatographic conditions to compare their chromatographic retention times and mass spectral data (see Table S1‐B).

[3] = Pharmacokinetics of MGS0008 in rats (intravenous or oral); format: in vivo, rat; conditions: fasted male rats
Experimental: as §1, with “S1‐E).” for “S1‐E). The plasma concentration‐time profiles of MGS0008 and MGS0274 were analyzed using a non‐compartmental analysis method with pharmacokinetic analysis software Phoenix® WinNonlin® 6.2 or later (Certara, Princeton, NJ).”
The plasma concentration‐time profiles of MGS0008 and MGS0274 were analyzed using a non‐compartmental analysis method with pharmacokinetic analysis software Phoenix® WinNonlin® 6.2 or later (Certara, Princeton, NJ).

[4] = cynomolgus monkey, plasma, compound monitored MGS0274, mean of two animals
[5] = Wistar, rat, MGS0008 intravenous 3 mg/kg, plasma
[6] = Wistar, rat, MGS0008 oral 3 mg/kg, plasma

CC(C)[C@@H]1CC[C@@H](C)C[C@H]1OC(=O)O[C@@H](C)OC(=O)[C@H]1[C@@H]2C[C@H](F)[C@@](N)(C(=O)O)[C@@H]21.O=S(=O)(O)c1ccccc1 [MGS0274 besylate, (1S,2S,3S,5R,6S)‐2‐amino‐3‐fluoro‐6‐({(1S)‐1‐[({[(1R,2S,5R)‐5‐methyl‐2‐(propan‐2‐yl)cyclohexyl]oxy}carbonyl)oxy]ethoxy}carbonyl)bicyclo[3.1.0]hexane‐2‐carboxylic acid monobenzenesulfonate]
Cmax [1, 4]: 1.28 ng/mL | Tmax [1, 4]: 1 h | AUC(0-t) ([1]; cynomolgus monkey, plasma, compound monitored MGS0274, mean of two animals, read-out: AUC0–24h of MGS0274): 2.03 ng·h/mL | vomiting [1]: two of the four monkeys experienced vomiting | MGS0274 in plasma ([1]; lower limit of quantification 1 ng/mL, 2.89 mg/kg): barely detectable; also recorded: barely detected

N[C@]1(C(=O)O)[C@H]2[C@@H](C[C@@H]1F)[C@@H]2C(=O)O [MGS0008, (1S,2S,3S,5R,6S)‐2‐amino‐3‐fluorobicyclo[3.1.0]hexane‐2,6‐dicarboxylic acid]
further metabolism of MGS0008 in hepatocytes [2]: no metabolites | concentration at 24 h ([3]; Wistar, rat, plasma, other: intravenous or oral, MGS0008 intravenous or oral 3 mg/kg, below lower limit of quantification): < 3 ng/mL | clearance ([3]; Wistar, rat, plasma, MGS0008 intravenous 3 mg/kg, mean ± SD (n = 3), read-out: CLtotal (converted)): 9.13 mL/min/kg | Vd ([3]; Wistar, rat, plasma, MGS0008 intravenous 3 mg/kg, mean ± SD (n = 3), read-out: Vdss): 0.545 ± 0.0939 L/kg | bioavailability ([3]; Wistar, rat, plasma, MGS0008 oral 3 mg/kg, AUC0-∞ oral / AUC0-∞ intravenous × 100): 78.1% | CL renal ([3]; Wistar, rat, urine and plasma, MGS0008 intravenous 3 mg/kg): 8.52 mL/min/kg | AUC(0-inf) [3, 5]: 5480 ± 293 ng·h/mL | half-life [3, 5]: 1.54 ± 0.06 h | AUC(0-inf) [3, 6]: 4280 ± 478 ng·h/mL | Cmax [3, 6]: 1990 ± 64.3 ng/mL | Tmax [3, 6]: 1.17 ± 0.289 h | half-life [3, 6]: 0.968 ± 0.031 h | Urinary excretion (unchanged form) ([3]; MGS0008 intravenous 3 mg/kg, within 48 hours, % of administered dose, 3 mg/kg): 93.2% and 93.2 ± 4.69%
